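Protocol summary: plate cells (96-well), add compound at 5 concentrations, incubate 48 h, interpolate endpoints linearly. TGI is the concentration that stops growth completely.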 Some results are limits rather than exact numbers.

Test systems include NCI-H226 lung; OVCAR-4 ovarian; SW-620 colon; UO-31 renal; LXFL 529 NSCLC; SNB-75 CNS; M14 melanoma; EKVX NSCLC; SK-MEL-5 melanoma; SK-MEL-2 melanoma; SR leukemia; COLO 205 colon; MOLT-4 leukemia; ACHN renal; SF-539 CNS; A498 renal; PC-3 prostate; MDA-MB-435; HCC-2998 colon; DU-145 prostate.
Assay in all cases: NCI tumour cell line growth inhibition, 48 h

As to `Cc1cc(C)c(C(=O)/C=C/c2ccccc2)c(C)c1`, the TGI in the assay on NCI-H226 lung is 43.1 µM; with OVCAR-4 ovarian it was 81.6 µM; with SW-620 colon, 48.1 µM; in the assay with UO-31 renal, more than 100 µM; in the assay on LXFL 529 NSCLC, more than 100 µM; in the assay on SNB-75 CNS, more than 100 µM. Besides, the TGI was 40.3 µM in the assay with M14 melanoma; more than 100 µM in the assay on EKVX NSCLC; more than 100 µM with SK-MEL-5 melanoma; 30.8 µM in the assay on SK-MEL-2 melanoma; more than 100 µM in the assay with SR leukemia; 71.3 µM in the assay on COLO 205 colon. The TGI in the assay with MOLT-4 leukemia and in the assay with ACHN renal was more than 100 µM in each case.

Consider `C=CCn1c(-c2ccc(Cl)cc2Cl)csc1=Nc1c(C)n(C)n(-c2ccccc2)c1=O`, for which the TGI with SF-539 CNS is 30.4 µM; in the assay with NCI-H226 lung, 33 µM; in the assay on A498 renal, 25.4 µM; with OVCAR-4 ovarian, 28.3 µM; in the assay on PC-3 prostate, 20.6 µM; with SW-620 colon, 32.8 µM. Besides, the TGI is 24.3 µM in the assay with UO-31 renal; 25.2 µM in the assay with MDA-MB-435; 29.1 µM in the assay on HCC-2998 colon; 24.5 µM in the assay with SNB-75 CNS; 27.3 µM in the assay on DU-145 prostate; 23.8 µM with M14 melanoma. Also, the TGI with EKVX NSCLC is 13.5 µM; with SK-MEL-5 melanoma, 13.1 µM; with SK-MEL-2 melanoma, 29.2 µM; in the assay on SR leukemia, 21.9 µM; with COLO 205 colon it was 25.6 µM; in the assay with MOLT-4 leukemia, 18.6 µM. The TGI with ACHN renal was 27.7 µM.

`Clc1cccc2c1OCC1C(c3ccccc3)=NN(c3ccccc3)C21` (stereo not given): the TGI with A498 renal, with SW-620 colon, in the assay with UO-31 renal, with LXFL 529 NSCLC, in the assay on HCC-2998 colon and with SNB-75 CNS was more than 100 µM each time. Further, the TGI with EKVX NSCLC is more than 100 µM; in the assay with SK-MEL-5 melanoma, 90.7 µM; with SK-MEL-2 melanoma, more than 100 µM; with COLO 205 colon, more than 100 µM; in the assay on MOLT-4 leukemia, more than 100 µM; with ACHN renal, more than 100 µM.

`Nc1c2c(nc3ccccc13)CCCc1ccccc1-2`: the TGI is 25.9 µM in the assay with SF-539 CNS; 45.4 µM in the assay on NCI-H226 lung; 22 µM in the assay on A498 renal; 84.8 µM with OVCAR-4 ovarian; 40.5 µM in the assay on PC-3 prostate; 26.6 µM with SW-620 colon. Besides, the TGI with UO-31 renal was 26.3 µM; in the assay on MDA-MB-435 it was 24.7 µM; with HCC-2998 colon it was 4.61 µM; in the assay on SNB-75 CNS, 26.6 µM; with DU-145 prostate, 80.3 µM; in the assay with M14 melanoma it was 21.6 µM. The TGI in the assay with EKVX NSCLC was 38.9 µM; in the assay with SK-MEL-5 melanoma, 21 µM; in the assay with SK-MEL-2 melanoma it was 27.1 µM; in the assay on SR leukemia, more than 100 µM; in the assay on COLO 205 colon it was 24.4 µM; in the assay on MOLT-4 leukemia, more than 100 µM. Besides, the TGI in the assay with ACHN renal was 23 µM.

For `COC(=O)c1ccc(C)cc1CC1Cc2c(C)cccc2C1=O` (stereo not given), the TGI was 22.3 µM in the assay with SF-539 CNS; 37.4 µM with NCI-H226 lung; 24 µM in the assay with A498 renal; more than 91.9 µM in the assay on OVCAR-4 ovarian; more than 34.6 µM with PC-3 prostate; more than 48.7 µM in the assay with SW-620 colon. The TGI in the assay with UO-31 renal was 66.4 µM; in the assay with MDA-MB-435, 4.38 µM; with HCC-2998 colon it was 25.2 µM; in the assay with SNB-75 CNS it was 20.9 µM; in the assay on DU-145 prostate, more than 81.9 µM; with M14 melanoma, more than 54.1 µM. The TGI is 73.5 µM in the assay with EKVX NSCLC; 19.7 µM with SK-MEL-5 melanoma; 17.5 µM in the assay with SK-MEL-2 melanoma; more than 100 µM in the assay with SR leukemia; 17 µM in the assay on COLO 205 colon; more than 47.2 µM with MOLT-4 leukemia. This compound displayed a TGI in the assay with ACHN renal of more than 94.3 µM.

As for `Cc1cccc(C(=O)O)c1CC1NCCC2c3ccccc3NC12` (stereo not given), the TGI with SF-539 CNS, with NCI-H226 lung, with A498 renal, with OVCAR-4 ovarian, with PC-3 prostate and in the assay with SW-620 colon was more than 100 µM in each case. The TGI in the assay with UO-31 renal, with MDA-MB-435, in the assay on HCC-2998 colon, with SNB-75 CNS, in the assay with DU-145 prostate and with M14 melanoma was more than 100 µM each time. The TGI in the assay with EKVX NSCLC, in the assay with SK-MEL-5 melanoma, in the assay with SK-MEL-2 melanoma, with SR leukemia, in the assay with COLO 205 colon and in the assay with MOLT-4 leukemia was more than 100 µM each time. The compound also returned a TGI with ACHN renal of more than 100 µM.

Regarding `CCOP(C)(=O)/C(Cc1ccc(OC)c(OC)c1)=N\O` (stereo not given), the TGI in the assay on SF-539 CNS, with NCI-H226 lung, with A498 renal, in the assay with OVCAR-4 ovarian, with PC-3 prostate and in the assay on SW-620 colon was more than 100 µM in each case. In addition, the TGI in the assay on UO-31 renal, in the assay with MDA-MB-435, in the assay with HCC-2998 colon, in the assay with SNB-75 CNS, with DU-145 prostate and in the assay on M14 melanoma was more than 100 µM throughout. For the same compound, the TGI in the assay with EKVX NSCLC, in the assay with SK-MEL-5 melanoma, with SK-MEL-2 melanoma, in the assay with SR leukemia, in the assay with COLO 205 colon and with MOLT-4 leukemia was more than 100 µM each time. Besides, in the assay on ACHN renal, the TGI was more than 100 µM.

On to `CC(=O)OCCOCCN1CCN(c2c(O)c3c(c(O)c2Cl)C(=O)C=CC3=O)CC1`, for which the TGI with SF-539 CNS was determined as 3.37 µM; with NCI-H226 lung, 5.89 µM; in the assay on A498 renal, 3.56 µM; in the assay with OVCAR-4 ovarian, 1.32 µM; in the assay on PC-3 prostate, 3.28 µM; in the assay on SW-620 colon it was 0.475 µM. Besides, the TGI was determined as 2.47 µM in the assay with UO-31 renal; 1.95 µM in the assay with MDA-MB-435; 4.31 µM in the assay on HCC-2998 colon; 3.71 µM in the assay with SNB-75 CNS; 3.29 µM in the assay on DU-145 prostate; 1.48 µM with M14 melanoma. Besides, the TGI came to 3.22 µM in the assay on EKVX NSCLC; 2.97 µM with SK-MEL-5 melanoma; 3.26 µM with SK-MEL-2 melanoma; 4.54 µM in the assay on SR leukemia; 0.68 µM in the assay with COLO 205 colon; 2.51 µM in the assay on MOLT-4 leukemia. This compound displayed a TGI with ACHN renal of 0.757 µM.

The record behind these values is PubChem BioAssay (NCI).
